Assay results taken from PubChem BioAssay (NCI).
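These data come from cells grown in 96-well plates and exposed to compound for 48 hours at five concentrations. Definition used: TGI = concentration required for complete inhibition of growth.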

Legend:
Assay in all cases: growth of human tumour cells (NCI), 48 h
NCI-H522 lung = test system: NCI-H522 lung
OVCAR-8 ovarian = test system: OVCAR-8 ovarian
M14 melanoma = test system: M14 melanoma
K-562 leukemia = test system: K-562 leukemia
HL-60(TB) leukemia = test system: HL-60(TB) leukemia
LOX IMVI melanoma = test system: LOX IMVI melanoma
U251 CNS = test system: U251 CNS
KM12 colon = test system: KM12 colon
TK-10 renal = test system: TK-10 renal
SK-OV-3 ovarian = test system: SK-OV-3 ovarian
A549 NSCLC = test system: A549 NSCLC
DMS 273 small cell lung = test system: DMS 273 small cell lung
UO-31 renal = test system: UO-31 renal
LXFL 529 NSCLC = test system: LXFL 529 NSCLC
ACHN renal = test system: ACHN renal
786-0 renal = test system: 786-0 renal
MOLT-4 leukemia = test system: MOLT-4 leukemia
HT29 colon = test system: HT29 colon
SNB-19 CNS = test system: SNB-19 CNS
SW-620 colon = test system: SW-620 colon
SK-MEL-28 melanoma = test system: SK-MEL-28 melanoma
UACC-257 melanoma = test system: UACC-257 melanoma
DMS 114 small cell lung = test system: DMS 114 small cell lung
HOP-62 NSCLC = test system: HOP-62 NSCLC
UACC-62 melanoma = test system: UACC-62 melanoma
OVCAR-4 ovarian = test system: OVCAR-4 ovarian
RXF 393 renal = test system: RXF 393 renal
COLO 205 colon = test system: COLO 205 colon
SF-268 CNS = test system: SF-268 CNS
SNB-78 CNS = test system: SNB-78 CNS
SK-MEL-2 melanoma = test system: SK-MEL-2 melanoma
EKVX NSCLC = test system: EKVX NSCLC
NCI-H226 lung = test system: NCI-H226 lung
KM20L2 colon = test system: KM20L2 colon
SNB-75 CNS = test system: SNB-75 CNS
CCRF-CEM leukemia = test system: CCRF-CEM leukemia
HCT-15 colon = test system: HCT-15 colon
MALME-3M melanoma = test system: MALME-3M melanoma
HOP-18 NSCLC = test system: HOP-18 NSCLC
SN12C renal = test system: SN12C renal
HCT-116 colon = test system: HCT-116 colon
RPMI-8226 leukemia = test system: RPMI-8226 leukemia
NCI-H460 lung = test system: NCI-H460 lung
XF 498 CNS = test system: XF 498 CNS
M19-MEL melanoma = test system: M19-MEL melanoma
SF-295 CNS = test system: SF-295 CNS
SK-MEL-5 melanoma = test system: SK-MEL-5 melanoma
NCI-H23 lung = test system: NCI-H23 lung

Measured: TGI

O[C@]12c3ccccc3C1CCCC2N1CCOCC1 (stereo partly drawn)
> 100 µM: all assays above
